“And” between values parts separate entries of the source, which are not always exact repeats. Identical values can stand only once.
Tests used:
[1] = tested on: IMR90 fetal lung myofibroblast; experiment: Cytotoxicity normal tissue 72 hr; type: cell-based, human
CALU-1 = type: cell-based, human
H1650 = type: cell-based, human
H1666 = type: cell-based, human
H1781 = type: cell-based, human
H23 = type: cell-based, human
H3122 = type: cell-based, human
PC9/gefb4 = type: cell-based, human
H1373 = type: cell-based, human
H322 = type: cell-based, human
HCC2450 = type: cell-based, human
H524 = experiment: Cytotoxicity SCLC 72 hr alamar blue; type: cell-based, human
H526 = experiment: Cytotoxicity SCLC 72 hr alamar blue; type: cell-based, human
H562 = experiment: Cytotoxicity SCLC 72 hr alamar blue; type: cell-based, human
[2] = tested on: Human Cancer Cell lines, Primary Patient Tumor Samples and normal tissues; experiment: Sensitivity classes over panel of cancer lines and normal tissues; type: cell-based; conditions: tumor cell lines of Table 12
Z-138 = experiment: Combination with BO-1055, MCL (Tables 28, 29); type: cell-based, human; conditions: read-out: IC50 single drug
REC-1 = experiment: Combination with BO-1055, MCL (Tables 28, 29); type: cell-based, human; conditions: read-out: IC50 single drug
Ly10 = conditions: human
Method: After 72 hours, the cultures were pulsed with Alamar Blue overnight, and the fluorescent intensity of resulted cultures was measured by a Synergy H1 plate-reader (BioTek Inc).

in vitro = conditions: rat, microsomes
[3] = tested on: nude mice bearing prostate 22Rv/HL2; experiment: Blood chemistry, 22Rv/HL2 xenograft mice; conditions: 24 hrs after last treatment

## N.N.[Cl][Pt][Cl] [Cisplatin]
[1]
  IC50: > 100 µM
CALU-1
  IC50: ≥ 20 µM
H1650
  IC50: 7.51 µM
H1666
  IC50: ≥ 20 µM
H1781
  IC50: 1.67 µM
H23
  IC50: 2.5 µM
H3122
  IC50: ≥ 30 µM
PC9/gefb4
  IC50: ≥ 35 µM
H1373
  IC50: 9.46 µM
H322
  IC50: ≥ 10 µM
HCC2450
  IC50: ≥ 80 µM
H524
  IC50: 0.41 µM
H526
  IC50: 2.85 µM
H562
  IC50: 1.39 µM

## CN(C)CCNC(=O)c1cccc(NC(=O)Nc2ccc(N(CCCl)CCCl)cc2)c1 [BO-1055, Ureidomustine]
[2]
  share of tested cell lines with IC50 in sub-μM range: 30%
Z-138
  IC50: 0.299 µM and 0.303 µM and 0.301 µM
REC-1
  IC50: 17.7 µM and 12.5 µM and 19.3 µM
Ly10
  IC50: 0.12 µM
In vitro
  half-life: 29.7 min
[3]
  ALT: 56.83 U/L
  AST: 102.17 U/L
  BUN: 37.23 mg/dL
  CREA: 0.38 mg/dL
  UA: 3.73 mg/dL

Source: patent US20200246284A1 (Academia Sinica, priority 2015, published 2020)
